Source: patent US20230159931A1, “TARGETING THE PALMOTYLATION/DEPALMOTYLATION CYCLE TO TREAT INFLAMMATORY DISEASES” (CORNELL UNIVERSITY, priority 2020, published 2023)
“Also recorded” adds a separate entry of the source.

Key:
[1] = tested on: STAT3 target genes (RORC and CCND1); assay: Expression of STAT3 target genes under TH17 differentiation conditions (qPCR); type: cell-based; conditions: mouse spleen cells
Procedure: Splenocytes were isolated from mice by classic methods. In brief, the excised spleen was sliced into small pieces and placed onto a strainer (352350, Thermo Fisher) attached to a 50 ml conical tube. The sliced spleen was pressed through the strainer using the plunger end of a syringe and the cells were washed through the strainer with excess 4° C. PBS. The cell suspension was centrifuged at 500 g for 5 min at 4° C. The cell pellet was suspended in 2 ml of red blood cell lysing buffer (R7757, Sigma) for 5 min at RT and diluted with 30 ml PBS. The cells were centrifuged at 500 g for 5 min at RT. The cell pellet was suspended in 20 ml of 37° C. DMEM media, mixed well with 10 ml of Percoll density gradient media (17089102, VWR) and centrifuged at 2,500 g for 5 min at RT. The collected cells were seeded in 37° C. RPMI 1640 medium (12633012, Gibco) supplemented with 10% FBS at 5×10^6 cells per ml. Splenocytes were cultured under TH17-polarizing conditions: 3 ng ml^−1 TGF-β (100-21, PeproTech), 40 ng ml^−1 IL-6 (200-06, PeproTech), 30 ng ml^−1 IL-23 (200-23, PeproTech), 20 ng ml^−1 tumour necrosis factor (TNF) (300-01A, PeproTech) and 10 ng ml^−1 IL-1β (200-01B, PeproTech). […]
Because STAT3 is important for TH17 cell differentiation, the inventors evaluated whether the palmitoylation-depalmitoylation cycle of STAT3 promotes the generation of TH17 cells from mouse spleen cells. […]

[2] = tested on: TH17 cell differentiation; assay: TH17 cell differentiation of mouse splenocytes by flow cytometry (CD4- and IL-17-positive cells); type: cell-based; conditions: cytokine cocktail and different concentrations of ML349 for 4 days
Procedure: FIGS. 3A-3E. The STAT3 palmitoylation-depalmitoylation cycle promotes TH17 cell differentiation. (A) DHHC7 promotes phosphorylation of wild-type STAT3, but not of the C108S mutant, in mouse splenocytes. Left, STAT3 and p-STAT3 blots; right, quantification of the relative p-STAT3 levels. (B) TH17 cell differentiation was quantified in the splenocyte samples in A by flow cytometry. […] Mouse splenocytes were treated with a cytokine cocktail (3 ng ml^−1 TGF-β, 40 ng ml^−1 IL-6, 30 ng ml^−1 IL-23, 20 ng ml^−1 TNF and 10 ng ml^−1 IL-1β) and different concentrations of ML349 for 4 days, then collected and analysed by flow cytometry to detect CD4- and IL-17-positive cells. (D) DHHC7 knockout in splenocytes inhibits TH17 cell differentiation. Wild-type and DHHC7-knockout mouse splenocytes were treated with a cytokine cocktail for 4 days to initiate differentiation, then the cells were collected and analyse by flow cytometry to detect CD4- and IL-17-positive cells. (E) Left, STAT3 and p-STAT3 blots of wild-type and DHHC7-knockout splenocytes. Right, quantification of the relative p-STAT3 levels. Data are mean±s.e.m. **P<0.01.
Splenocytes were isolated from mice by classic methods. […]
For FACS analysis, flow cytometry was performed using 1×10^6 cells per sample. […] The cells were detected by Attune Flow Cytometer (Thermo Fisher) and analysed with FCS Express 6 software (De Novo Software).

[3] = tested on: NZB/W F1 female mice; assay: Lupus nephrosis mouse model (proteinuria analysis); type: in vivo; conditions: 25 mg/Kg IP three times per week for 8 weeks, from 25-week age
Procedure: FIGS. 17A-17B. Lupus Nephrosis Mouse Model: APT2 inhibitor ML349 decreases protein concentration in the mouse urine. (A) Protein concentration in urine (all data points), (B) Protein concentration in urine (averaged, with error bars). NZB/W F1 female mice at 25-week were administered via IP injection with either vehicle solution (DMSO+PBS) or APT2 inhibitor ML349 at 25 mg/Kg three times per week for 8 weeks. After 4 weeks of treatment, mice were evaluated for lupus incidence weekly through proteinuria analysis by collecting the urines and measuring the protein concentrations in the urine.
NZB/W F1 female mice at 25-week were administered via IP injection with either vehicle solution (DMSO+PBS) or APT2 inhibitor ML349 at 25 mg/Kg three times per week for 8 weeks. After 4 weeks of treatment, mice were evaluated for lupus incidence weekly through proteinuria analysis by collecting the urines and measuring the protein concentrations in the urine. […] This was the first time that the inventors did this experiment and after the experiment began, the inventors noticed that at 25 weeks, the disease phenotype was already very severe. It is expected that if the ML349 treatment is begun earlier, the effect might be more obvious and significant.

**Q.** `COc1ccc(N2CCN(C(=O)c3cc4c(s3)-c3ccccc3S(=O)(=O)C4)CC2)cc1` [ML349] was tested. Which “expression of STAT3 target genes (RORC and CCND1)” value [1] did it give?
**A.** significantly decreased

**Q.** What about the “differentiation of TH17 cells” value [2] of the same molecule?
**A.** significantly decreased; also recorded: decreases TH17 cell differentiation in a dose-dependent manner

**Q.** What about the “protein concentrations in the urine” value [3] of the same molecule?
**A.** decrease
